Source: patent US11434222B2, “MAGL inhibitors” (H. LUNDBECK A/S, priority 2020, dated 2022)

Assays:
[1] = target: T1, MAGL (Mus musculus, UniProt O35678); assay: In vivo MAGL inhibition in mouse brain proteomes after oral gavage; details: 5 mg/kg oral gavage, 4 h after administration, read-out: MAGL % inh. 5 mg/kg (mouse)
T1 construct: brain proteomes were prepared and analyzed according to previously established methods; from tissue; host or cells: brain of wild-type C57Bl/6J mice
T1 sequence (O35678 1-303): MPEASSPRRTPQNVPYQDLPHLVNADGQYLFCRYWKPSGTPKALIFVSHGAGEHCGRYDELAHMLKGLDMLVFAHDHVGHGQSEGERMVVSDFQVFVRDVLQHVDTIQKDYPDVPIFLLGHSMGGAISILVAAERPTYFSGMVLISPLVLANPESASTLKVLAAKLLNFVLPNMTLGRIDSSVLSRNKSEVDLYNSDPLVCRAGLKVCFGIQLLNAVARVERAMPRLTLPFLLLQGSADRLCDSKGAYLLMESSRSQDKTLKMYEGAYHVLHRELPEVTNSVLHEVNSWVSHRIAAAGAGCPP
Description: Inhibitors were administered to wild-type C57B1/6J by oral gavage in a vehicle of polyethylene glycol. Each animal was sacrificed 4 h following administration and brain proteomes were prepared and analyzed according to previously established methods (See Niphakis, M. J., et al. (2011) ACS Chem. Neurosci. and Long, J. Z., et al. Nat. Chem. Biol. 5:37-44).

[2] = In vitro rat blood to plasma ratio; format: in vitro ADME; details: 1 μM test compound
Description: (§1) Brain disposition was evaluated in male Sprague-Dawley rats (n=3, standard body weight). Briefly, test compound was formulated as a simple suspension, in 0.5% HPMC in water, then administered by oral gavage (5 mg/kg, 5 mL/kg). Four hours post dosing, rats were sacrificed, and terminal blood and brain samples were taken. Blood was obtained via cardiac puncture (0.1 mL) and was added into 0.4 mL CH3CN for precipitation immediately. The samples were stored at −75+/−15° C. prior to analysis. Brain tissue samples were collected after animals were fully exsanguinated, and the tissues were washed with cold saline quickly. After sectioning, brain sections were immediately frozen in liquid nitrogen and stored at −75+/−15° C. prior to analysis. Blood and brain samples were analyzed by LC/MS/MS using an optimized analytical method. Concentrations of test compound in blood and brain were quantified against matrix matched calibration standards. The total blood, plasma, and brain concentration data are presented in Table 2 alongside the calculated brain Kp (total brain concentration:total plasma concentration ratio), the calculated brain kp,uu (unbound brain concentration:unbound plasma concentration ratio), the free fractions in rat plasma and brain, and the in vitro rat blood to plasma distribution profile. The total plasma concentration data were calculated from the total blood concentration data using rat blood to plasma ratio which was measured in vitro (1 μM test compound). For kp,uu determination, the free fraction in rat plasma and brain homogenate were measured in vitro by standard equilibrium dialysis (1 μM test compound and 6 h equilibration against buffer pH 7.4; for rat plasma analysis, 100 mM stock solution of diisopropyl fluorophosphate was added to the pre-warmed rat plasma prior to adding test article).

[3] = test system: rat formalin paw model of inflammatory pain; assay: Rat formalin paw model of inflammatory pain; format: in vivo
Description: In the rat formalin paw model formalin is administered into the right […] of a rat in order to induce pain (observed by hind limb licking duration and frequency).
Male Sprague Dawley rats were divided into three cohorts to enable testing in the Laboras™ equipment to be carried out over three days in a balanced design to give treatment groups of 10. On the day of the study, male Sprague Dawley rats were weighed, tail marked and dosed orally with vehicle, test compound (0.1, 0.3, 0.6, 1, 3 or 10 mg/kg) or pregabalin (30 mg/kg) 4 h pre-test using a 5 mL/kg dosing volume. For Example 6 the vehicle used was 0.5% methylcellulose in water and for Example 8 the vehicle used was 20% HP-b-CD. Up to six animals were dosed at a time. After 4 h, rats received an intraplantar injection of 50 μL of a 2.5% v/v formalin solution into the right hind paw. Rats were immediately placed into the Laboras™ cages and data acquisition started. The primary measures recorded by Laboras™ for the formalin paw model are hind limb licking duration and frequency. Locomotion is also reported as maximum speed, average speed when moving or over the whole-time bin and distance travelled. After 40 min, when data acquisition was complete, rats were removed from the cages.
On removal from the test cages, rats were anaesthetised with the gaseous anaesthetic isoflu-rane (5% v/v isoflurane in oxygen) and blood samples were collected by cardiac puncture. Brains were then removed, rinsed in phosphate buffered saline (PBS), hemi-sected and frozen separately in liquid nitrogen.
Data were analysed with Statistica software (TIBCO, USA version 11.1). All data are expressed as means±standard error of the mean (sem) to one decimal place. […] Time course data were analysed by repeated measures analysis of variance (ANOVA) followed by one-way ANOVAs at each time point and subsequent Dunnett's post hoc tests. […]

[4] = Thermodynamic solubility in PBS; format: physicochemical; details: aqueous buffer, thermodynamic from solid; PBS pH 7.4; 24 hours at RT
Description: The thermodynamic solubility of test article was determined in PBS at pH 7.4 in duplicate. The test article (1.5 mg) in PBS was incubated for 24 hours at RT with shaking at 1100 rpm. Sample was then filtered using a vacuum manifold, diluted, and analyzed by LC-MS/MS. Chromatographic conditions: Phenomenex Synergi 4μ Hydro-PR 80A column (2.0×30 mm) coupled with pre-guard column; mobile phase=0.1% formic acid in acetonitrile and 0.1% formic acid in water; flowrate=0.65 mL/min; column temperature=40 degrees C.; injection volume: 10 μL.
Mobile phase: 0.1% formic acid in acetonitrile (A) and 0.1% formic acid in water (B)
Mass conditions: Turbo spray ion source; ESI ionization model; MRM scan type; Collison gas=6 L/min; Curtain gas=30 L/min; Nebulize gas=50 L/min; Auxiliary gas=50 L/min; Temperature=500 degrees C.; Ion spray voltage=+5500 v (positive MRM).
The filtered solution was analyzed and quantified against a standard of known concentration in DMSO using UPLC coupled with mass spectral peak identification and quantitation. Solubility values of the test articles were calculated using Microsoft Excel as follows (DF is the dilution factor): […]

[5] = Rat Kp, brain disposition after oral gavage; format: in vivo; details: for Total plasma concentration / Total blood concentration / Total brain concentration: 5 mg/kg oral gavage; for Total plasma concentration / Kp at 4 h / Kp uu at 4 h: 4 h; for Total plasma concentration: calculated from total blood concentration using blood to plasma ratio; for Total blood concentration / Total brain concentration: 4 h post dosing, mean n = 3; for Kp at 4 h / Kp uu at 4 h: male, Sprague-Dawley, po, 5 mg/kg p.o.; for Kp at 4 h: total brain concentration:total plasma concentration ratio; for Kp uu at 4 h: unbound brain concentration:unbound plasma concentration ratio
Description: as §1

O=C(Nc1cccnn1)[C@H]1CC12CCN(C(=O)OC(C(F)(F)F)C(F)(F)F)CC2 [Example 6, 1,1,1,3,3,3-hexafluoropropan-2-yl (S)-1-(pyridazin-3-ylcarbamoyl)-6-azaspiro[2.5]octane-6-carboxylate]
inhibition at 5 mg/kg [1]: 100% | blood plasma ratio at 1 μM [2]: 0.72 | measure of spontaneous pain (hind limb licking frequency) ([3]; 0.6 mg/kg, 3 mg/kg and 10 mg/kg p.o. 4 h pre-test, early and/or late phases, FIG. 1): statistically significant reduction | solubility thermodynamic at 24 h [4]: 71.5 µg/mL | Total plasma concentration [5]: 0.576 µM | Total blood concentration [5]: 0.415 µM | Total brain concentration [5]: 1.78 µM | Kp at 4 h [5]: 3.09 | Kp uu at 4 h [5]: 2.25

O=C(NC1CCOCC1)[C@H]1CC12CCN(C(=O)OC(C(F)(F)F)C(F)(F)F)CC2 [Example 8, 1,1,1,3,3,3-hexafluoropropan-2-yl (S)-1-[(oxan-4-yl)carbamoyl]-6-azaspiro[2.5]octane-6-carboxylate]
inhibition at 5 mg/kg [1]: 100% | blood plasma ratio at 1 μM [2]: 0.96 | measure of spontaneous pain (hind limb licking frequency) ([3]; 0.3 mg/kg and 0.6 mg/kg p.o. 4 h pre-test, late phase, FIG. 2): statistically significant reduction | measure of spontaneous pain (hind limb licking frequency) ([3]; 1 mg/kg, 3 mg/kg and 10 mg/kg p.o. 4 h pre-test, both early and late phases, FIG. 2): statistically significant reduction | solubility thermodynamic at 24 h [4]: 606 µg/mL | Total plasma concentration [5]: 0.124 µM | Total blood concentration [5]: 0.119 µM | Total brain concentration [5]: 0.255 µM | Kp at 4 h [5]: 2.06 | Kp uu at 4 h [5]: 0.801
